Biological target: T1, full-length human PKCι (Homo sapiens, UniProt P41743)
T1 construct: Recombinant, full-length human PKCι expressed in Sf21 insect cells is also commercially available; purchased EMD Millipore; host or cells: Sf21 insect cells (baculovirus)
T1 sequence (P41743 1-596): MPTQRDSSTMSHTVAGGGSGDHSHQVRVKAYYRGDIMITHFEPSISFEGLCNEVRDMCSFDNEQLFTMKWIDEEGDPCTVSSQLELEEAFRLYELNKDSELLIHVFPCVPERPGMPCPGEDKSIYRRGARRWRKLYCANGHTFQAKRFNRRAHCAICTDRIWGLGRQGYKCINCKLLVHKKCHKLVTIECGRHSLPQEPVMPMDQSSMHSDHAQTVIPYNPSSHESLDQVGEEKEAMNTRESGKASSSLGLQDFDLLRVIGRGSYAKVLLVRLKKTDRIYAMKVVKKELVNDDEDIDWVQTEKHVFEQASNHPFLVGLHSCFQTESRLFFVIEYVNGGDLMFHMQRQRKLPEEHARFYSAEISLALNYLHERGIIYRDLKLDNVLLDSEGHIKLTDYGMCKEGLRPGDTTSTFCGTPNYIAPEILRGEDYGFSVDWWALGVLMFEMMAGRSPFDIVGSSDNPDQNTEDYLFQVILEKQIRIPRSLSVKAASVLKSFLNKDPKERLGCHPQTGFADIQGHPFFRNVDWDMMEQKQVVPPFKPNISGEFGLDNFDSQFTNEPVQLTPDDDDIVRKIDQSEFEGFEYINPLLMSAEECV
Test: PKCι IC50 IMAP fluorescence polarisation assay, full-length enzyme, 150 μM ATP
Format: biochemical
Conditions: read-out: IC50 in IMAP assay against full length PKCi at 150 μM ATP
Summary of the method: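 IMAP fluorescence polarisation kinase assay: 15 pM baculovirus-expressed human PKCiota with 100 nM FAM-pseudosubstrate peptide and 150 μM ATP, 1 h at 25 °C. IMAP detection reagent then 2 h at 25 °C before FP measurement. Inhibition referenced to no-compound and no-enzyme controls for IC50 fitting.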

Row | Structure (SMILES) | IC50 [nM]
1 | CSc1cc2c(-c3nc(N(C)C4CCNCC4)c4c(C5CC5)cncc4n3)ccnc2[nH]1 [Example 119, [5-Cyclopropyl-2-(2-methylsulfanyl-1H-pyrrolo[2,3-b]pyridin-4-yl)-pyrido[3,4-d]pyrimidin-4-yl]-methyl-piperidin-4-yl-amine] | < 100
2 | CS(=O)(=O)c1cc2c(-c3nc(N4CCNCC4)c4c(C5CCC5)cncc4n3)ccnc2[nH]1 [Example 120, 5-Cyclobutyl-2-(2-methanesulfonyl-1H-pyrrolo[2,3-b]pyridin-4-yl)-4-piperazin-1-yl-pyrido[3,4-d]pyrimidine] | < 100
3 | N[C@H]1C[C@@H](Nc2nc(-c3ccnc4[nH]c5ccccc5c34)nc3cncc(C4CCC4)c23)C1 [Example 121, cis-[5-Cyclobutyl-2-(9H-pyrido[2,3-b]indol-4-yl)-pyrido[3,4-d]pyrimidin-4-yl]-cyclobutane-1,3-diamine] | < 100
4 | OC1CNCCC(Nc2nc(-c3ccnc4[nH]c5ccccc5c34)nc3cncc(C4CCC4)c23)C1 (stereo not shown) [Example 122, 5-[5-Cyclobutyl-2-(9H-pyrido[2,3-b]indol-4-yl)-pyrido[3,4-d]pyrimidin-4-ylamino]-azepan-3-ol] | < 100
5 | Fc1cc(F)c(Nc2cc(-c3nc(N4CCC5NCCCC54)c4c(C5CCC5)cncc4n3)ccn2)nc1F (stereo not shown) [Example 123, {4-[5-Cyclobutyl-4-(octahydro-pyrrolo[3,2-b]pyridin-1-yl)-pyrido[3,4-d]pyrimidin-2-yl]-pyridin-2-yl}-(3,5,6-trifluoro-pyridin-2-yl)-amine] | < 100
6 | Fc1ccc(F)c(Nc2cc(-c3nc(N4CCC5NCCCC54)c4c(C5CCC5)cncc4n3)ccn2)n1 (stereo not shown) [Example 124, {4-[5-Cyclobutyl-4-(octahydro-pyrrolo[3,2-b]pyridin-1-yl)-pyrido[3,4-d]pyrimidin-2-yl]-pyridin-2-yl}-(3,6-difluoro-pyridin-2-yl)-amine] | < 100
7 | c1ccc(Nc2cc(-c3nc(N4CCC5NCCCC54)c4c(C5CCC5)cncc4n3)ccn2)cc1 (stereo not shown) [Example 125, {4-[5-Cyclobutyl-4-(octahydro-pyrrolo[3,2-b]pyridin-1-yl)-pyrido[3,4-d]pyrimidin-2-yl]-pyridin-2-yl}-phenyl-amine] | < 100
8 | CC1CNCCC1Nc1nc(-c2ccnc(Nc3nc(F)c(F)cc3F)c2)nc2cncc(C3CCC3)c12 (stereo not shown) [Example 126, {5-Cyclobutyl-2-[2-(3,5,6-trifluoro-pyridin-2-ylamino)-pyridin-4-yl]-pyrido[3,4-d]pyrimidin-4-yl}-(3-methyl-piperidin-4-yl)-amine] | < 100
9 | CC1CNCCC1Nc1nc(-c2ccnc(Nc3nc(F)ccc3F)c2)nc2cncc(C3CCC3)c12 (stereo not shown) [Example 127, {5-Cyclobutyl-2-[2-(3,6-difluoro-pyridin-2-ylamino)-pyridin-4-yl]-pyrido[3,4-d]pyrimidin-4-yl}-(3-methyl-piperidin-4-yl)-amine] | < 100
10 | Clc1ccccc1-c1cc2c(-c3nc(N4CCC5NCCC54)c4c(C5CC5)cncc4n3)ccnc2[nH]1 (stereo not shown) [Example 128, 2-[2-(2-Chloro-phenyl)-1H-pyrrolo[2,3-b]pyridin-4-yl]-5-cyclopropyl-4-(hexahydro-pyrrolo[3,2-b]pyrrol-1-yl)-pyrido[3,4-d]pyrimidine] | < 100
11 | Clc1ccccc1-c1cc2c(-c3nc(N4CCC5NCCCC54)c4c(C5CC5)cncc4n3)ccnc2[nH]1 (stereo not shown) [Example 129, 2-[2-(2-Chloro-phenyl)-1H-pyrrolo[2,3-b]pyridin-4-yl]-5-cyclopropyl-4-(octahydro-pyrrolo[3,2-b]pyridin-1-yl)-pyrido [3,4-d]pyrimidine] | < 100
12 | Clc1cc2c(-c3nc(N4CCNCC4)c4c(C5CCC5)cncc4n3)ccnc2[nH]1 [Example 130, 2-(2-Chloro-1H-pyrrolo[2,3-b]pyridin-4-yl)-5-cyclobutyl-4-piperazin-1-yl-pyrido[3,4-d]pyrimidine] | < 100
13 | c1ncc(-c2cc3c(-c4nc(N5CCNCC5)c5c(C6CCC6)cncc5n4)ccnc3[nH]2)cn1 [Example 131, 5-Cyclobutyl-4-piperazin-1-yl-2-(2-pyrimidin-5-yl-1H-pyrrolo[2,3-b]pyridin-4-yl)-pyrido[3,4-d]pyrimidine] | < 100
14 | Cn1cc(-c2cc3c(-c4nc(N5CCNCC5)c5c(C6CCC6)cncc5n4)ccnc3[nH]2)cn1 [Example 132] | < 100
15 | CCSc1cc2c(-c3nc(N4CCNCC4)c4c(C5CCC5)cncc4n3)ccnc2[nH]1 [Example 133, 5-Cyclobutyl-2-(2-ethylsulfanyl-1H-pyrrolo[2,3-b]pyridin-4-yl)-4-piperazin-1-yl-pyrido[3,4-d]pyrimidine] | < 100
16 | CCSc1cc2c(-c3nc(N4CCNCC4)c4c(C5CC5)cncc4n3)ccnc2[nH]1 [Example 134, 5-Cyclopropyl-2-(2-ethylsulfanyl-1H-pyrrolo[2,3-b]pyridin-4-yl)-4-piperazin-1-yl-pyrido[3,4-d]pyrimidine] | < 100
17 | CC1(C)CNCCC1Nc1nc(-c2ccnc(Nc3cc4ccccn4n3)c2)nc2cncc(C3CCC3)c12 (stereo not shown) [Example 136, {5-Cyclobutyl-2-[2-(pyrazolo[1,5-a]pyridin-2-ylamino)-pyridin-4-yl]-pyrido[3,4-d]pyrimidin-4-yl}-(3,3-dimethyl-piperidin-4-yl)-amine] | < 100
18 | CC1(C)CC(Nc2nc(-c3ccnc(Nc4nc(F)c(F)cc4F)c3)nc3cncc(C4CCC4)c23)CCN1 (stereo not shown) [Example 137, {5-Cyclobutyl-2-[2-(3,5,6-trifluoro-pyridin-2-ylamino)-pyridin-4-yl]-pyrido[3,4-d]pyrimidin-4-yl}-(2,2-dimethyl-piperidin-4-yl)-amine] | < 100
19 | CC1(C)CC(Nc2nc(-c3ccnc(Nc4nc(F)ccc4F)c3)nc3cncc(C4CCC4)c23)CCN1 (stereo not shown) [Example 138, {5-Cyclobutyl-2-[2-(3,6-difluoro-pyridin-2-ylamino)-pyridin-4-yl]-pyrido[3,4-d]pyrimidin-4-yl}-(2,2-dimethyl-piperidin-4-yl)-amine] | < 100
20 | Clc1ccc(-c2cc3c(-c4nc(N5CCNCC5)c5c(C6CC6)cncc5n4)ccnc3[nH]2)cc1 [Example 139, 2-[2-(4-Chloro-phenyl)-1H-pyrrolo[2,3-b]pyridin-4-yl]-5-cyclopropyl-4-piperazin-1-yl-pyrido[3,4-d]pyrimidine] | < 100
21 | Clc1ccc(-c2cc3c(-c4nc(N5CCC6NCCC65)c5c(C6CC6)cncc5n4)ccnc3[nH]2)cc1 (stereo not shown) [Example 140, 2-[2-(4-Chloro-phenyl)-1H-pyrrolo[2,3-b]pyridin-4-yl]-5-cyclopropyl-4-(hexahydro-pyrrolo[3,2-b]pyrrol-1-yl)-pyrido[3,4-d]pyrimidine] | < 100
22 | c1ccc2c(c1)[nH]c1nccc(-c3nc(N[C@@H]4CCCNCC4)c4c(C5CCC5)cncc4n3)c12 [Example 141, (R)-Azepan-4-yl-[5-cyclobutyl-2-(9H-pyrido[2,3-b]indol-4-yl)-pyrido[3,4-d]pyrimidin-4-yl]-amine] | < 100
23 | Clc1ccc(Cl)c(-c2cc3c(-c4nc(N5CCC6NCCCC65)c5c(C6CC6)cncc5n4)ccnc3[nH]2)c1 (stereo not shown) [Example 142, 5-Cyclopropyl-2-[2-(2,5-dichloro-phenyl)-1H-pyrrolo[2,3-b]pyridin-4-yl]-4-(octahydro-pyrrolo [3,2-b]pyridin-1-yl)-pyrido[3,4-d]pyrimidine] | < 100
24 | c1ccn2nc(Nc3cc(-c4nc(N5CCC6CNCCC65)c5c(C6CC6)cncc5n4)ccn3)nc2c1 (stereo not shown) [Example 152, {4-[5-Cyclopropyl-4-(octahydro-pyrrolo[3,2-c]pyridin-1-yl)-pyrido [3,4-d]pyrimidin-2-yl]-pyridin-2-yl}-[1,2,4]triazolo[1,5-a] pyridin-2-yl-amine] | 1000 to 10000
25 | Cc1cc2c(-c3nc(N[C@H]4CCNCC4(C)C)c4c(C5CC5)cncc4n3)ccnc2[nH]1 [Example 153, [5-Cyclopropyl-2-(2-methyl-1H-pyrrolo[2,3-b]pyridin-4-yl)-pyrido[3,4-d]pyrimidin-4-yl]-((S)-3,3-dimethyl-piperidin-4-yl)-amine] | 100 to 1000
26 | Cc1cc2c(-c3nc(N[C@@H]4CCNCC4(C)C)c4c(C5CC5)cncc4n3)ccnc2[nH]1 [Example 154, [5-Cyclopropyl-2-(2-methyl-1H-pyrrolo[2,3-b]pyridin-4-yl)-pyrido[3,4-d]pyrimidin-4-yl]-((R)-3,3-dimethyl-piperidin-4-yl)-amine] | < 100
27 | FC(F)(F)c1cc2c(-c3nc(N4CCOC5CNCC54)c4c(C5CC5)cncc4n3)ccnc2[nH]1 (stereo not shown) [Example 155, 5-Cyclopropyl-4-(hexahydro-pyrrolo[3,4-b] [1,4]oxazin-4-yl)-2-(2-trifluoromethyl-1H-pyrrolo[2,3-b]pyridin-4-yl)-pyrido[3,4-d]pyrimidine] | < 100
28 | CC1(C)CNCCC1Nc1nc(-c2ccnc3[nH]c(-c4ccc(C(N)=O)cc4)cc23)nc2cncc(C3CC3)c12 (stereo not shown) [Example 156, 4-{4-[5-Cyclopropyl-4-(3,3-dimethyl-piperidin-4-ylamino)-pyrido[3,4-d]pyrimidin-2-yl]-1H-pyrrolo[2,3-b]pyridin-2-yl}-benzamide] | < 100
